# Data taken from patent publication US6239171A, “Tocotrienols and tocotrienol-like compounds and methods for their use” (Lipogenics, Inc., priority 1998, dated 2001).
# Values joined by “and” are separate entries in the source; they are usually repeats but may differ in a detail not shown here. Identical values can stand only once.
# Biological target: T1, HMG-CoA reductase (Homo sapiens, UniProt P04035)
# T1 construct: hepatocytes isolated from livers of 8-week old female chickens; endogenous in cells; host or cells: primary chicken hepatocytes
# T1 sequence (P04035 1-888): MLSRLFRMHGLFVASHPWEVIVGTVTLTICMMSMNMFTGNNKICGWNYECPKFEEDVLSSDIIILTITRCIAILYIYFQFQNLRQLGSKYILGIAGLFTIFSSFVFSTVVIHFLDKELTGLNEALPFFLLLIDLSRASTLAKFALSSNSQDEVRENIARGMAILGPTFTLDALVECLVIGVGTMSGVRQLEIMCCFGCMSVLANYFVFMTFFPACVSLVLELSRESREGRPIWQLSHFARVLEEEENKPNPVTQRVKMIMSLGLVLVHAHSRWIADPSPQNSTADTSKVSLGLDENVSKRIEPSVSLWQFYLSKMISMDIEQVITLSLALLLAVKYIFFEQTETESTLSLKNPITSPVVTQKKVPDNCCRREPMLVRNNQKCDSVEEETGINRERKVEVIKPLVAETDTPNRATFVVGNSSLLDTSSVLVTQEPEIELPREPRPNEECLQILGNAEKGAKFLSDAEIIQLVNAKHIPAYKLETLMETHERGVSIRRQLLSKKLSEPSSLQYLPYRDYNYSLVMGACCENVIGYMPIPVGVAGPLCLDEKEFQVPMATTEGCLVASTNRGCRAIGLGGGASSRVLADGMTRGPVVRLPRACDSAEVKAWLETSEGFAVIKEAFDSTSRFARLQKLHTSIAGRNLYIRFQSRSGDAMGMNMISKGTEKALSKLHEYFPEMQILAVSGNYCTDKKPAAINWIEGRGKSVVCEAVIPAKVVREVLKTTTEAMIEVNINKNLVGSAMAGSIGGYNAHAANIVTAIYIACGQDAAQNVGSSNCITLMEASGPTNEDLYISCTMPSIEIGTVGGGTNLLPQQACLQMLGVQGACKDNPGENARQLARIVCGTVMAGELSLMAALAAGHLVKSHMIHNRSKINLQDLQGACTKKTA
# Assay: HMG-CoA reductase activity in isolated chicken hepatocytes
# Type: cell-based
# Protocol: This study measured the effects of three tocotrienols isolated from rice bran on cholesterol-related enzyme activity in hepatocytes isolated from livers of 8-week old female chickens. The chickens were fed the chick mash diet for 8 weeks. They were then fasted for 40 hours and finally refed for 48 hours before sacrifice. The hepatocytes were then prepared following standard methods.
# Each compound was isolated from TRF using the following protocol: A bond Elute amine column was equilibrated with 2 ml hexane. 10 mg of TRF (dissolved in 0.5 ml hexane) was bound to the amine column. The column was washed with 1 ml of hexane, then with 1 ml of 3% isopropanol in hexane. P-21 and P-25 were eluted off the column with 5% isopropanol in hexane. Then using 10% isopropanol in hexane, the impurity P-20 was eluted. α-tocotrienol was also tested.
# We next measured the effects of various tocotrienols and tocotrienol-like compounds isolated from rice bran on the activity of HMG-CoA reductase. 20.0 g of stabilized rice bran was extracted with 200.0 ml of methanol to remove various UV absorbing impurities and tocotrienols (6.7 mg total). This step was repeated four times. The remaining residue was dried under vacuum in a desiccator and then heated at 180° C. for 2 hours under 30 psi pressure. Then the dried residue was extracted again with 200.0 ml methanol (3.4 mg). […]
compound,measurement,value
"CC(C)=CCC/C(C)=C/CC/C(C)=C/CCC1CCc2cc(O)ccc2O1 (stereo not shown) [P25, 3,4-dihydro-2-(4,8,12-trimethyltrideca-3'(E),7'(E),11'-trienyl)-2H-1-benzopyran-6-ol]",maximum reduction in activity of HMG-CoA reductase,46.6% and 58.6%
